How the values were obtained:
[1] = tested on: Na^+—K^+-2Cl^− cotransport activity of Xenopus oocytes; assay: Endogenous Na+-K+-2Cl- cotransport activity of Xenopus oocytes; type: cell-based; settings: 100 μM DIOA
Experimental: The sensitivity of the KCCs to other inhibitors of red cell K^+—Cl^− cotransport was also assessed in oocytes injected with KCC4 or KCC1. FIG. 18 illustrates the effect of 100 μM DIDS and 100 μM DIOA on the ^86Rb^+ uptake induced by the microinjection of each KCC cRNA. The effect of extracellular K^+ concentration on the inhibition of cotransport was very dramatic for DIDS. […] However, inhibition of KCC4 was higher when extracellular K^+ was lower, although this was not the case for KCC1. DIOA is reportedly specific for K^+—Cl^− cotransport over Na^+—K^+-2Cl^− cotransport (Garay et al. (1988) Mol Pharmacol 33:696–701), and the same concentration of DIOA had no effect on the function of the Na^+—K^+-2Cl^− cotransport activity of Xenopus oocytes (Gamba et al. (1994) J Biol Chem 269: 17713–17722).

rat KCC2 = biological target: T1, rat KCC2 (Rattus norvegicus, UniProt Q63633); settings: rat KCC2 in HEK293 cells; read-out: chloride affinity (Km) reported for rKCC2; cited from earlier work
T1 construct: host or cells: HEK293 cells
T1 sequence (Q63633 1-1116 isoform Q63633-2): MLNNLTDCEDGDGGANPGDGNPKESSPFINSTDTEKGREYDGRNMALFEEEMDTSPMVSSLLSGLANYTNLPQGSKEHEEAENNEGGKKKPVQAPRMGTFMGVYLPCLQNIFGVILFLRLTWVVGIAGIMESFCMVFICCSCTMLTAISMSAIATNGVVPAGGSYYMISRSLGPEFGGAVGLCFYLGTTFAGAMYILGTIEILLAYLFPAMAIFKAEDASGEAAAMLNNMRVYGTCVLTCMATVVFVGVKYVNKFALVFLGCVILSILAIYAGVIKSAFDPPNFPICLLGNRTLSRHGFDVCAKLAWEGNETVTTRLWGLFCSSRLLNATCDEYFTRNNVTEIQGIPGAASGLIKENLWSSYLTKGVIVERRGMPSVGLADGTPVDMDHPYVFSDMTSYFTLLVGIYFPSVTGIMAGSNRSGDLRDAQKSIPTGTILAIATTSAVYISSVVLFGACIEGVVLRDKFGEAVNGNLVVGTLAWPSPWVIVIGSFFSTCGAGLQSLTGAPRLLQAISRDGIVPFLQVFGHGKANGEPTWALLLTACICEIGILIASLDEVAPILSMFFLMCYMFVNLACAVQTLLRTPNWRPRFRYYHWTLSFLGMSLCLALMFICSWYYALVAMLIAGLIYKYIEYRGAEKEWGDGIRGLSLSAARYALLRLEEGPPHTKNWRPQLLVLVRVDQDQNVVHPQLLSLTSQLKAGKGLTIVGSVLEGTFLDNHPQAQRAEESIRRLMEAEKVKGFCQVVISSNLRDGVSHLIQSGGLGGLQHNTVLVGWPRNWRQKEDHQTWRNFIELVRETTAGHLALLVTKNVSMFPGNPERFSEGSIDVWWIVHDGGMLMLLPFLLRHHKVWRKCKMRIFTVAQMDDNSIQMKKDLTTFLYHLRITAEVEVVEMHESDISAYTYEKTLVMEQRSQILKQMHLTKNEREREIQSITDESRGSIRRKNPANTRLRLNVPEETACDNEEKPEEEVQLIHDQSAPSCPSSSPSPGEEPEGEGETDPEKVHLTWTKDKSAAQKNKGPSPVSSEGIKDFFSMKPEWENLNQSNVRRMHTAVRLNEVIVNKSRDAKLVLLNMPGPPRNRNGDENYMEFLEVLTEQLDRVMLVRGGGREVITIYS

hKCC3b = biological target: T2, hKCC3b (Homo sapiens, UniProt Q9UHW9); type: cell-based; settings: 2 mM furosemide; 100 nM calyculin A
T2 construct: expressed in transfected cells; host or cells: Xenopus oocytes microinjected with KCC3b cRNA
T2 sequence (Q9UHW9 1-1099 isoform Q9UHW9-2): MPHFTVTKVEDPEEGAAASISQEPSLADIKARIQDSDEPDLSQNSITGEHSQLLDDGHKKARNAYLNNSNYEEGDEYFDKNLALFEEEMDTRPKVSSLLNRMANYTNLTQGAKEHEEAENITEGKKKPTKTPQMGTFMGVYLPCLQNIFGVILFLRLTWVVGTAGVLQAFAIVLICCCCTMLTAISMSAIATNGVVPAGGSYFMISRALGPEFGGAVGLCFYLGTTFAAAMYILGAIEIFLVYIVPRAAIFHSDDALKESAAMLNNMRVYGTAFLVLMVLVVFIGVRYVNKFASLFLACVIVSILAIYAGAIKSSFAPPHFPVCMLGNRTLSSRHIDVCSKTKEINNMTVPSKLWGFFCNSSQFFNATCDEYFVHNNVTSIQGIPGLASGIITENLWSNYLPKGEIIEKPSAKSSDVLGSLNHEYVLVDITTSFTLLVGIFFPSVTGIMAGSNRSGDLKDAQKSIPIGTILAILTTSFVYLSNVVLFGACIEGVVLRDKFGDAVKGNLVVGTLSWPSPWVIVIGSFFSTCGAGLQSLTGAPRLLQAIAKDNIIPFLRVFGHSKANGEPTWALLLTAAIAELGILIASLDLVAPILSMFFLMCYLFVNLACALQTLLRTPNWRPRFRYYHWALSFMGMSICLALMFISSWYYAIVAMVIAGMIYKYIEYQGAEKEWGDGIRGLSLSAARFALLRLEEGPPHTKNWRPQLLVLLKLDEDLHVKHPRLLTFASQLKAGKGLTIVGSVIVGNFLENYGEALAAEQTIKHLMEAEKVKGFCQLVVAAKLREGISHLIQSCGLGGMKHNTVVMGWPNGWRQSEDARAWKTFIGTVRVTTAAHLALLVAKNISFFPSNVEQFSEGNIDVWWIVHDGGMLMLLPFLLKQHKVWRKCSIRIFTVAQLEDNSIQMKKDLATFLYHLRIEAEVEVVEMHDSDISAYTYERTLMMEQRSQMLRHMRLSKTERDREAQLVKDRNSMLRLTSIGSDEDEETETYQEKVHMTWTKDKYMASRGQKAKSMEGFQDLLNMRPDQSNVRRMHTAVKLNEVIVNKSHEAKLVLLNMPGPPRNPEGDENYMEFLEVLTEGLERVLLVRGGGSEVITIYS
Experimental: Open bars, uptake assays performed in a control medium containing 10 mM K^+and 50 mM Cl^−; hatched bars, uptake assays performed in medium lacking Cl^−; bars with horizontal stripes, uptake assays performed in the presence of 100 nM calyculin A; black bars, uptake assays performed in the presence of okadaic acid; gray bars, uptake assays performed in the presence of cypermetrin.

CCCCC1(C2CCCC2)Cc2cc(OCC(=O)O)c(Cl)c(Cl)c2C1=O (stereo not drawn) [DIOA]
effect on Na+-K+-2Cl- cotransport activity of Xenopus oocytes [1]: no effect

Cl [Chloride]
Km (rat KCC2): > 50 mM

COC[C@@H]([C@H](O)[C@H](O)C(=O)NCC[C@H](C)c1nc(/C=C/C[C@@H]2O[C@]3(C[C@@H](O)[C@@H]2C)O[C@H]([C@H](C[C@H](O)[C@H](C)[C@H](O)[C@H](C)/C=C(C)/C(C)=C/C=C/C(C)=C\C#N)OC)[C@H](OP(=O)(O)O)C3(C)C)co1)N(C)C [calyculin A]
hKCC3b-mediated K+-Cl- cotransport in the presence of putative inhibitors (hKCC3b): blocked
